Assay [1] has as its target T1, unphosphorylated c-FMS kinase (uFMS, Seq. ID no. 1) (Homo sapiens, UniProt P07333).
T1 construct: purchased Millipore
T1 sequence (P07333 538-972): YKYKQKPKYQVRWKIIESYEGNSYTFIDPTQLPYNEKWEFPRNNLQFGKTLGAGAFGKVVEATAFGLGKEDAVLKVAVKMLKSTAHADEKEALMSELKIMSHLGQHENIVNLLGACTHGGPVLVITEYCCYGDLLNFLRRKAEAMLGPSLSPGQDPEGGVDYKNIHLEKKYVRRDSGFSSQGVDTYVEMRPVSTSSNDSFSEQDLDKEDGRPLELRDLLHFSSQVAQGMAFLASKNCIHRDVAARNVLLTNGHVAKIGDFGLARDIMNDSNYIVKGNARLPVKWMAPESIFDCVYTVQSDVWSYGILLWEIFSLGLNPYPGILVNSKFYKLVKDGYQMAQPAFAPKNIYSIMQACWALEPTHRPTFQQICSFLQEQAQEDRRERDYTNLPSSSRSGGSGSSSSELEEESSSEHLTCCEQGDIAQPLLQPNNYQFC
Nature of the assay: uFMS kinase enzymatic assay (pyruvate kinase/lactate dehydrogenase coupled). It counts as biochemical. To be noted: ATP 500 μM, rate 3 to 4 h. In outline: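 Coupled PK/LDH assay following NADH oxidation at A340 with 10 nM unphosphorylated FMS, 1 mg/mL polyE4Y, 500 μM ATP in 90 mM Tris pH 7.5, 0.2% octyl-glucoside, 1% DMSO. Read continuously 4 h at 30 °C; rate from 3–4 h window versus no-compound control; IC50 from percent-inhibition series.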

Assay [2] concerns phospho-FMS in THP-1 cells. Kind of assay: Phospho-FMS ELISA assay in THP-1 cells. In kind it is cell-based. To be noted: Homo sapiens, 4 h compound, M-CSF stimulation 5 min, read-out: pFMS inhibition in THP-1 cells. As to the method: THP-1 cells (catalog #TIB-202) were obtained from the ATCC. Briefly, cells were grown in RPMI 1640 supplemented with 10% characterized fetal bovine serum, 1% sodium pyruvate, 1% Penicillin-Streptomycin-Glutamine (PSG) and 55 uM 2-mercaptoethanol (Invitrogen, Carlsbad, Calif.) at 37 degrees Celsius, 5% CO2, 95% humidity. Cells were allowed to expand until reaching 70-95% confluency at which point they were subcultured or harvested for assay use.
A serial dilution of test compound was diluted 1:100 in assay medium (RPMI 1640 supplemented with 10% characterized fetal bovine serum) in a 96 well black clear bottom plate (Corning, Corning, N.Y.). In a separate 96 well black clear bottom plate, one hundred and fifty thousand THP-1 cells were added per well in 100 μL in assay medium. Fifty microliters of diluted compound was then added to the cells. Plates were incubated for 4 hours at 37 degrees Celsius, 5% CO2, 95% humidity. At the end of the incubation period, cells were stimulated with 50 μL of a 100 nM solution of recombinant human M-CSF (catalog #216-MC, R & D Systems, Minneapolis, Minn.) in assay medium and the plate was incubated for 5 minutes at 37 degrees Celsius, 5% CO2, 95% humidity. Lysates were prepared and used to perform the phospho-FMS ELISA as described by the manufacturer (catalog #DYC3268, R & D Systems, Minneapolis, Minn.). GraphPad Prism was used to calculate IC50 values obtained from data generated from the ELISA assay.
For orientation: ELISA stands for enzyme-linked immunosorbent assay.

The structures appear in SMILES notation.

For `Cc1nc(-n2nc(Cc3ccc(F)cc3)[nH]c2=O)ccc1Oc1ccnc(-c2cnn(C)c2)c1` [Example 1, 3-(4-fluorobenzyl)-1-(6-methyl-5-((2-(1-methyl-1H-pyrazol-4-yl)pyridin-4-yl)oxy)pyridin-2-yl)-1H-1,2,4-triazol-5(4H)-one], the IC50 was no more than 10 nM in assay [1] and 10 to 100 nM in assay [2].
On to `Cc1nc(-n2nc(Cc3ccccc3)[nH]c2=O)ccc1Oc1ccnc(-c2cnn(C)c2)c1` [Example 2, 3-benzyl-1-(6-methyl-5-((2-(1-methyl-1H-pyrazol-4-yl)pyridin-4-yl)oxy)pyridin-2-yl)-1H-1,2,4-triazol-5(4H)-one], for which the IC50 in assay [1] and in assay [2] was no more than 10 nM each time.
Take `Cn1cc(-c2cc(Oc3ccc(-n4nc(Cc5ccc(F)cc5)[nH]c4=O)nc3)ccn2)cn1` [Example 3, 3-(4-fluorobenzyl)-1-(5-((2-(1-methyl-1H-pyrazol-4-yl)pyridin-4-yl)oxy)pyridin-2-yl)-1H-1,2,4-triazol-5(4H)-one]: the figures for the IC50 in assay [1] and in assay [2] were no more than 10 nM and 10 to 100 nM, respectively.
For the compound `Cn1cc(-c2cc(Oc3ccc(-n4nc(C(C)(C)C)[nH]c4=O)nc3)ccn2)cn1` [Example 4, 3-(tert-butyl)-1-(5-((2-(1-methyl-1H-pyrazol-4-yl)pyridin-4-yl)oxy)pyridin-2-yl)-1H-1,2,4-triazol-5(4H)-one], the IC50 was no more than 10 nM in assay [1] and 10 to 100 nM in assay [2].
Consider `Cc1nc(-n2nc(C(C)C)[nH]c2=O)ccc1Oc1ccnc(-c2cnn(C)c2)c1` [Example 5, 3-isopropyl-1-(6-methyl-5-((2-(1-methyl-1H-pyrazol-4-yl)pyridin-4-yl)oxy)pyridin-2-yl)-1H-1,2,4-triazol-5(4H)-one], for which the IC50 in assay [1] and in assay [2] was 10 to 100 nM each time.
Take `Cc1nc(-n2nc(C3CCCCC3)[nH]c2=O)ccc1Oc1ccnc(-c2cnn(C)c2)c1` [Example 6, 3-cyclohexyl-1-(6-methyl-5-((2-(1-methyl-1H-pyrazol-4-yl)pyridin-4-yl)oxy)pyridin-2-yl)-1H-1,2,4-triazol-5(4H)-one]: the IC50 in assay [1] and in assay [2] was no more than 10 nM in each case.
Turning to `Cc1cc(-c2cc(Oc3ccc(-n4nc(C(C)(C)C)[nH]c4=O)nc3C)ccn2)ccn1` [Example 9, 3-(tert-butyl)-1-(6-methyl-5-((2′-methyl-[2,4′-bipyridin]-4-yl)oxy)pyridin-2-yl)-1H-1,2,4-triazol-5(4H)-one], the IC50 in assay [1] and in assay [2] was 10 to 100 nM in each case.
Consider `Cc1ccc(-c2cc(Oc3ccc(-n4nc(C(C)(C)C)[nH]c4=O)nc3C)ccn2)cn1` [Example 10, 3-(tert-butyl)-1-(6-methyl-5-((6′-methyl-[2,3′-bipyridin]-4-yl)oxy)pyridin-2-yl)-1H-1,2,4-triazol-5(4H)-one], for which the IC50 in assay [1] and in assay [2] was 10 to 100 nM throughout.
With `Cc1nc(-n2nc(C(C)(C)C)n(C)c2=O)ccc1Oc1ccnc(-c2cnn(C)c2)c1` [Example 13, 3-(tert-butyl)-4-methyl-1-(6-methyl-5-((2-(1-methyl-1H-pyrazol-4-yl)pyridin-4-yl)oxy)pyridin-2-yl)-1H-1,2,4-triazol-5(4H)-one], the IC50 is 10 to 100 nM in assay [1] and 100 to 1000 nM in assay [2].
On to `Cc1nc(-n2nc(C(C)(C)C)[nH]c2=O)ccc1Oc1ccnc(-c2ccc(C3CCN(C)CC3)cc2)c1` [Example 14, 3-(tert-butyl)-1-(6-methyl-5-((2-(4-(1-methylpiperidin-4-yl)phenyl)pyridin-4-yl)oxy)pyridin-2-yl)-1H-1,2,4-triazol-5(4H)-one], for which the IC50 was no more than 10 nM in assay [1] and 10 to 100 nM in assay [2].
`COC(C)(C)c1nn(-c2ccc(Oc3ccnc(-c4cnn(C)c4)c3)c(C)n2)c(=O)[nH]1` [Example 16, 3-(2-methoxypropan-2-yl)-1-(6-methyl-5-((2-(1-methyl-1H-pyrazol-4-yl)pyridin-4-yl)oxy)pyridin-2-yl)-1H-1,2,4-triazol-5(4H)-one]: the IC50 was 10 to 100 nM in assay [1] and 100 to 1000 nM in assay [2].

Values taken from patent US9193719B2, “1,2,4-triazol-5-ones and analogs exhibiting anti-cancer and anti-proliferative activities” (Deciphera Pharmaceuticals, LLC, priority 2013, dated 2015).
